Tests used:
Plasmopara viticola = test: D-1: Action against Plasmopara viticola on vines (residual-protective and residual-curative action); assay type: in vivo; conditions: vine seedlings, spray mixture 0.02% active ingredient; evaluated after 6 days at 95-100% relative humidity and 20° C.
Protocol: D-1: Action against Plasmopara viticola on Vines a) Residual-protective Action
Vine seedlings are sprayed at the 4- to 5-leaf stage with a spray mixture (0.02% active ingredient) prepared from a wettable powder formulation of the test compound. After 24 hours, the treated plants are infected with a sporangia suspension of the fungus. Fungus infestation is evaluated after incubation for 6 days at 95-100% relative humidity and 20° C. […]
b) Residual-curative Action
Vine seedlings are infected at the 4- to 5-leaf stage with a sporangia suspension of the fungus. After incubation for 24 hours in a humidity chamber at 95-100% relative humidity and 20° C., the infected plants are dried and sprayed with a spray mixture (0.02% active ingredient) prepared from a wettable powder formulation of the test compound. After the spray coating has dried, the treated plants are placed in the humidity chamber again. Fungus infestation is evaluated 6 days after infection.

Phytophthora [1] = test: D-2: Action against Phytophthora on tomato plants (residual-protective and systemic action); assay type: in vivo; conditions: spray mixture 0.02% active ingredient, sprayed or watered, evaluated 4-5 days after infection at 90-100% relative humidity and 20° C.
Protocol: D-2: Action Against Phytophthora on Tomato Plants
(§1) a) Residual-protective Action
(§2) After a cultivation period of 3 weeks, tomato plants are sprayed with a spray mixture (0.02% active ingredient) prepared from a wettable powder formulation of the test compound. After 48 hours, the treated plants are infected with a sporangia suspension of the fungus. Fungus infestation is evaluated after incubation of the infected plants for 5 days at 90-100% relative humidity and 20° C.
as §2, with “watered” for “sprayed”, “ingredient based on the volume of the soil)” for “ingredient)”, “compound. […]” for “compound.”, “96” for “48”, “4” for “5”

Phytophthora [2] = test: D-3: Action against Phytophthora on potato plants (residual-protective and systemic action); assay type: in vivo; conditions: potato plants (Bintje variety), spray mixture 0.02% active ingredient, sprayed or watered; evaluated after 4 days at 90-100% relative humidity and 20° C.
Protocol: D-3: Action Against Phytophthora on Potato Plants
as §1
(§3) 2-3 week old potato plants (Bintje variety) are sprayed with a spray mixture (0.02% active ingredient) prepared from a wettable powder formulation of the test compound. After 48 hours, the treated plants are infected with a sporangia suspension of the fungus. Fungus infestation is evaluated after incubation of the infected plants for 4 days at 90-100% relative humidity and 20° C.
as §3, with “watered” for “sprayed”, “ingredient based on the volume of the soil)” for “ingredient)”, “compound. […]” for “compound.”

| SMILES | Fungus infestation (fungicidal action against Plasmopara viticola on vines) (Plasmopara viticola) | Fungus infestation (action against Phytophthora on tomato plants) (Phytophthora [1]) | Fungus infestation (fungicidal action against Phytophthora on potatoes) (Phytophthora [2]) | melting point |
| --- | --- | --- | --- | --- |
| C#CCOc1ccc(CCNC(=O)C(=NSC)c2ccc(F)cc2)cc1OC [Compound 14.071, 2-(4-fluoro-phenyl)-N-[2-(3-methoxy-4-prop-2-ynyloxy-phenyl)-ethyl]-2-methylthioimino-acetamide] | completely inhibit fungal infestation |  |  |  |
| C#CCOc1ccc(CCNC(=O)C(=NSC)c2ccc(Cl)cc2)cc1OC [Compound 14.001, 2-(4-chloro-phenyl)-N-[2-(3-methoxy-4-prop-2-ynyloxy-phenyl)-ethyl]-2-methylthioimino-acetamide] | completely inhibit fungal infestation | completely inhibit fungal infestation | completely inhibit fungal infestation |  |
| COc1ccc(CCNC(=O)C(=NSC)c2ccc(-c3ccc(C)cc3)cc2)cc1OC [Compound 11.171, 2-[4-(4-methyl-phenyl)-phenyl]-N-[2-(3,4-di-methoxy-phenyl)-ethyl]-2-methylthioimino-acetamide] | completely inhibit fungal infestation |  |  | 40 to 47 °C |
| C#CCOc1ccc(CCNC(=O)C(=NSC)c2ccc(OC)cc2)cc1OC [Compound 14.051, 2-(4-methoxy-phenyl)-N-[2-(3-methoxy-4-prop-2-ynyloxy-phenyl)-ethyl]-2-methylthioimino-acetamide] | completely inhibit fungal infestation |  |  |  |
| C#CCOc1ccc(CCNC(=O)C(=NSC)c2ccc(Br)cc2)cc1OC [Compound 14.031, 2-(4-bromo-phenyl)-N-[2-(3-methoxy-4-prop-2-ynyloxy-phenyl)-ethyl]-2-methylthioimino-acetamide] | completely inhibit fungal infestation | completely inhibit fungal infestation |  |  |
| C#CCOc1ccc(CCNC(=O)C(=NSC)c2ccc3ccccc3c2)cc1OC [Compound 14.121, N-[2-(3-methoxy-4-prop-ynyloxy-phenyl)-ethyl]-2-naphthalen-2-yl-2-methylthioimino-2-acetamide] | completely inhibit fungal infestation |  |  |  |
| COc1ccc(CCNC(=O)C(=NSC)c2ccc(-c3ccc(C(C)(C)C)cc3)cc2)cc1OC [Compound 11.351, 2-[4-(4-tert.-butyl-phenyl)-phenyl]-N-[2-(3,4-di-methoxy-phenyl)-ethyl]-2-methylthioimino-acetamide] | completely inhibit fungal infestation |  |  | 45 to 52 °C |
| CC#COc1ccc(CCNC(=O)C(=NSC)c2ccc(C)cc2)cc1OC [Compound 14.041, N-[2-(3-methoxy-4-prop-ynyloxy-phenyl)-ethyl]-2-methylthioimino-2-(4-tolyl)-acetamide] | completely inhibit fungal infestation | completely inhibit fungal infestation | completely inhibit fungal infestation |  |
| C#CCOc1ccc(CCNC(=O)C(=NSC)c2ccc(Cl)c(Cl)c2)cc1OC [Compound 14.011, 2-(3,4-dichloro-phenyl)-N-[2-(3-methoxy-4-prop-2-ynyloxy-phenyl)-ethyl]-2-methylthioimino-acetamide] | completely inhibit fungal infestation | completely inhibit fungal infestation | completely inhibit fungal infestation |  |

Reference: patent publication US6479550B1, “α-sulfenimino acid derivatives” (priority 1999, dated 2002)
